The text below walks through data of BindingDB's records for doi:10.1021/jm00041a023 (Merck Research Laboratories, 1994).

By IC50 is commonly meant the midpoint of a concentration-inhibition curve.

This test addresses T1, Gag-Pol polyprotein [588-1027]/[588-1147] (Human immunodeficiency virus 1, UniProt P04585).
T1 construct: 588-1027; 588-1147
Kind of test: HIV-1 RT Assay. The conditions noted are these: pH 8.2. The source says:
The IC50 of reverse transcriptase is the concentration that inhibits 50% of recombinant HIV-1 RT RNA-directed DNA polymerase activity in vitro.

Molecules are shown by their SMILES.

In the case of `O=C1Nc2ccc(Cl)cc2C(C#Cc2cc([N+](=O)[O-])ccn2)(C2CC2)N1` (stereo unspecified) [6-chloro-4-cyclopropyl-4-[2-(4-nitropyridin-2-yl)ethynyl]-1,2,3,4-tetrahydroquinazolin-2-one], the IC50 was above 10 µM.
